Experimental data reported in paper PMC5378566, “Design, synthesis and evaluation in an LPS rodent model of neuroinflammation of a novel ^18F-labelled PET tracer targeting P2X7” (EJNMMI Research, 2017).

Tests used:
[1] = target: T1, rat P2X7 (Rattus norvegicus, UniProt Q64663); parameters: method as in PMID 11181928; conditions: YoPro dye uptake, P2X7-HEK293; cited from earlier work
T1 construct: expressed in transfected cells
T1 sequence (Q64663 1-595): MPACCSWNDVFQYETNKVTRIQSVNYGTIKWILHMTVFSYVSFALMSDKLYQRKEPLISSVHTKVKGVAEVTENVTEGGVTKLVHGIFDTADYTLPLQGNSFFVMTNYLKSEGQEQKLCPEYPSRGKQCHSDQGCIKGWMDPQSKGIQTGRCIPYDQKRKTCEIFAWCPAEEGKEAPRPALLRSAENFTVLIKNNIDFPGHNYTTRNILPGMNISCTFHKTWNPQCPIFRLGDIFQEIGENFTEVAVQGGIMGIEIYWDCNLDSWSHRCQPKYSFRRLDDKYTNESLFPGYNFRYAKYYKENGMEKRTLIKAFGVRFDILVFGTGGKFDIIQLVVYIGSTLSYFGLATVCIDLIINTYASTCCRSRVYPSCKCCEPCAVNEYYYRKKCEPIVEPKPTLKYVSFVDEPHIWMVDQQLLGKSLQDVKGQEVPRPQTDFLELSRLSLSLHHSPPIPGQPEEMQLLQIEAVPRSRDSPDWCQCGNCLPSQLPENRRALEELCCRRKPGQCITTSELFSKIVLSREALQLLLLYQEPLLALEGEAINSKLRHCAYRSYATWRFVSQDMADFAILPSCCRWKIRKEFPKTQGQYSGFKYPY

[2] = target: T2, human P2X7 (Homo sapiens, UniProt Q99572); parameters: method as in PMID 11181928; conditions: YoPro dye uptake, P2X7-HEK293; cited from earlier work
T2 construct: expressed in transfected cells
T2 sequence (Q99572 1-595): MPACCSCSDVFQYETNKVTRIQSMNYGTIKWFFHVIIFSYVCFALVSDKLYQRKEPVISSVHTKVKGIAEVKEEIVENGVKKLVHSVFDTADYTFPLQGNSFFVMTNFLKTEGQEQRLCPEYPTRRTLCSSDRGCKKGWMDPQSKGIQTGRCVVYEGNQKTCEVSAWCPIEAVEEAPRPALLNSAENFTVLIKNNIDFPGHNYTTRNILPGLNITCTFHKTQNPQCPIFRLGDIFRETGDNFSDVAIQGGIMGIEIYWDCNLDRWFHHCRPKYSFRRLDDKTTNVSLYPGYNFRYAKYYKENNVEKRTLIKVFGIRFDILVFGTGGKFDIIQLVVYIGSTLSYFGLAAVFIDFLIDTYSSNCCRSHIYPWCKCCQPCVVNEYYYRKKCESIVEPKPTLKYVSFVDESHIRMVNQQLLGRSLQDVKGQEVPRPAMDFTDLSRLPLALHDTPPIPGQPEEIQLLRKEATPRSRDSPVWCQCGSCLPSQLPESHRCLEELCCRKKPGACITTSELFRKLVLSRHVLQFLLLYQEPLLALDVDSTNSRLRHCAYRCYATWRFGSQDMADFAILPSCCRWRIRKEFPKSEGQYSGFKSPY

[3] = target: T3, mouse P2X7 (Mus musculus, UniProt Q9Z1M0); parameters: method as in PMID 11181928; conditions: YoPro dye uptake, P2X7-HEK293; cited from earlier work
T3 sequence (Q9Z1M0 1-595): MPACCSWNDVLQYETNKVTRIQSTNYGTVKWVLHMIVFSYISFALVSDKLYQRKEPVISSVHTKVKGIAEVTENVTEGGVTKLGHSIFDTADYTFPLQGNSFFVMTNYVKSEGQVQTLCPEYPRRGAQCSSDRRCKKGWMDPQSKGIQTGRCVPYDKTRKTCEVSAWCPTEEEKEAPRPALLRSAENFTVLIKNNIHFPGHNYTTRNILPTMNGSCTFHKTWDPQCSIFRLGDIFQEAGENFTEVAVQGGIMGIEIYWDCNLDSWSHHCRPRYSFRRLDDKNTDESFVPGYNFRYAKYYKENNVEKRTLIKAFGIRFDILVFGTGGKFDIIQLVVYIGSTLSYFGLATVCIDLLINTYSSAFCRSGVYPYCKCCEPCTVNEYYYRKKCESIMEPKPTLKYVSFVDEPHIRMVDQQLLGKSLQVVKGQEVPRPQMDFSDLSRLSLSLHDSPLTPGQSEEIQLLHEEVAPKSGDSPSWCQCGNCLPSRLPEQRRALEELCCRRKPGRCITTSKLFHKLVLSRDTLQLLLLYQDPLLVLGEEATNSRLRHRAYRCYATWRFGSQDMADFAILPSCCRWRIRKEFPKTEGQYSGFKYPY

[4] = target: T3, mouse P2X7; assay: Calcium influx (Fura-2/AM) inhibition assay, BzATP-activated, B16 cells; type: cell-based; conditions: Mouse isoform; for pKi: Cheng–Prusoff; for Ki: Cheng–Prusoff from pIC50 assuming competitive inhibition, BzATP 200 μM; for pIC50: P2X7-B16, [BzATP] 200 μM
[5] = target: T2, human P2X7; assay: Calcium influx (Fura-2/AM) inhibition assay, BzATP-activated; type: cell-based; conditions: Human isoform
[6] = target: T3, mouse P2X7; parameters: method as in PMID 19558545; conditions: Mouse isoform, literature value from similar assay format; cited from earlier work
[7] = target: T1, rat P2X7; assay: Calcium influx (Fura-2/AM) inhibition assay, BzATP-activated; type: cell-based; conditions: Rat isoform
[8] = test system: Sprague–Dawley rats; assay: PET/CT imaging and biodistribution in LPS-treated and control rats; type: in vivo, rat
Method: Male Sprague–Dawley rats of 240–270 g were bought from Charles River Laboratories International, Inc., and used within 90 days. The animals were housed with a week of acclimatisation before procedures were done under pathogen-free conditions in a temperature- and humidity-controlled environment and given access to food and water ad libitum. All experiments were carried out in the Rayne Institute, St. Thomas’ Hospital, King’s College London, between 2015 and 2016 and according to the Animals Act 1986 and with the approval of the King’s College research ethics committee.
Twenty-four hours prior to scanning, all rats were pre-treated by an intraperitoneal injection of 0.5 mg/kg LPS from Escherichia coli (0111:B4 L2630, Sigma Aldrich) at 0.5 mg/mL or with 1 mL/kg sterile saline solution and weighed before the start of the PET imaging procedure. Then, the saline-dissolved reformulated radiotracer was injected under isoflurane anaesthesia in 0.2–5 MBq, corresponding to an administered dose of 0.5–16 ng/kg, and >300 GBq/μmol molar radioactivity via tail vein cannulation, followed by a 0.15 mL saline flush. Details on anaesthesia and PET/CT acquisition and analysis are reported in Additional file 1. Immediately after imaging, the animals were culled by terminal anaesthesia and cervical dislocation and dissected. Organs and body fluids were collected for gamma counting (LKB Wallac 1282) and biodistribution analysis.
Data are expressed as mean ± standard error mean (SEM) from three independent replicates, unless otherwise indicated. Statistical analysis of the %ID/g variation in the PET scans and biodistributions were performed with GraphPad Prism 5.0 (San Diego, USA) as a parametric two-way ANOVA test with Bonferroni post-test, while the mean longitudinal percentage injected dose per gram (%ID/g) and the post-LPS treatment weight variation were analysed with a Student’s t test. The asterisk indicates P < 0.01; **P < 0.005; ***P < 0.001. Where unspecified, no significance was found.
PET/CT scans were acquired with Nuclide^TM within the energy window of 400-600 keV, coincidence detection ratio 1-5 and voxel resolution of 0.30 x 0.30 x 0.30 mm^3. CT scanning was performed immediately before or after the PET scans with X-ray energy of 45 KVp, 360 projection and 0.25 x 0.25 x 0.21 mm^3 voxel size. The datasets were resolved by dynamic fine reconstructions with coincidence detection ratio 1-5 and decay correction to the time of injection. Binning was performed in incremental time units of 5 to 30 min size. All reconstructed datasets were analysed with VivoQuant 1.21 (InviCRO, LLC, Boston, USA). ROI activity quantification was corrected for background noise. Uptake was expressed as percent injected dose per gram of tissue (%ID/g), as calculated with reference to the injected activity dose at the time of injection and the ROI size in mm^3. The blood ROI was sampled from the coronary artery. All data are presented as mean ± SEM unless otherwise stated.
Immediately after imaging, the animals were culled by terminal anaesthesia and cervical dislocation. The animals were dissected and organs and body fluids were collected for gamma counting (LKB Wallac 1282) and weighed. An ^18F counts-to-becquerel standard curve was made so as to enable conversion between the two units. The radiotracer uptake in each organ was expressed as %ID/g, where %ID was the percent ratio of the measured organ radioactivity to the total administered dose. The latter was defined as the MBq injected to the animals, decay corrected to the start of counting.

[9] = Stability test in 0.05% DMSO by radio/UV-HPLC; type: physicochemical; conditions: 37 °C, 2 h
Method: The reaction vessel was heated at 160 °C for 15 min, cooled to 50 °C and the solvent was concentrated at 50 °C under a stream of nitrogen for 7–10 min. Next, the crude mixture was diluted in 2 mL water ensuring <15% acetonitrile was present and injected in an HPLC semi-prep C18 column to provide isolation of the pure product in >99% RCP and >300 GBq/μmol molar radioactivity. The product was diluted to 30–50 mL in water and passed through a light C18 Short Sep-Pak SPE cartridge (WAT023501) for concentration in 200–500 μL ethanol. The resulting product was obtained in high purity and 4.0% overall RCY in 3 h and 30 min from start of synthesis. Purity tests were performed with HPLC method B (Table 1).
Supp. […] UV_A: UV chromatogram; ChA: Channel A (Radiochromatogram); Cps: counts per second.

2′(3′)-O-(4-Benzoylbenzoyl)adenosine 5′-triphosphate triethylammonium salt [BzATP]
pEC50 [1]: 6.3 ± 0.13 | pEC50 [2]: 6.8 ± 0.14 | pEC50 [3]: 4.7 ± 0.07

COc1ccc(CC(=O)NC(NC(=NC#N)Nc2cccc3ncccc23)C(C)(C)C)cc1OC (stereo not shown) [A-740003, N-(1-{[(Cyanoimino)(5-quinolinylamino)methyl]amino}-2,2-dimethylpropyl)-2-(3,4-dimethoxyphenyl)acetamide, reference compound]
pKi [4]: 7.01 | Ki [4]: 97.2 nM | pIC50 [4]: 5.97 | Ki ([5]; Cheng–Prusoff): 0.105 nM | IC50 ([5]; P2X7-HEK293, [BzATP] 100 μM): 66.1 nM | Lit. pIC50 [6]: 6.57 [34]

N#CN=C(NCc1ccc(F)cc1)Nc1cccc2ncccc12 [EFB, 2-cyano-1-(4-fluorobenzyl)-3-(quinolin-5-yl)guanidine]
Ki ([7]; Cheng–Prusoff from pIC50 assuming competitive inhibition, BzATP 100 μM): 36.1 nM | IC50 ([7]; P2X7-HEK293, [BzATP] 100 μM): 7240 nM | pKi [4]: 6.26 | Ki [4]: 547 nM | pIC50 [4]: 5.22

N#C/N=C(/NCc1ccc([18F])cc1)Nc1cccc2ncccc12 [[^18F]EFB, 2-cyano-1-(4-[^18F]fluorobenzyl)-3-(quinolin-5-yl)guanidine]
blood concentration of the tracer, LPS vs control ([8]; 90 min biodistribution): substantially unvaried | tracer uptake in upper digestive organs (stomach, pancreas), LPS vs control ([8]; 90 min biodistribution): increased, albeit non-significant | CNS uptake, spinal cord ([8]; PET, rats, i.v.): 0.05–0.1 %ID/g | CNS uptake, whole brain, cortex, olfactory bulb, cerebellum and basal ganglia ([8]; PET, rats, i.v.): 0.02–0.07 %ID/g | blood concentration (longitudinal uptake profile) ([8]; PET, rats, i.v., blood ROI): 0.05–0.1 %ID/g | brain uptake (visual PET image assessment) ([8]; control and 0.5 mg/kg LPS-pre-treated rats): low brain uptake | removal of the radioactivity (excretion route) ([8]; rats): predominantly via the urinary route | Stability [9]: no radioactive by-product formation
